PubChem BioAssay (NCI)
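Five compound concentrations were applied to cells in 96-well plates for 48 hours; endpoints were derived by simple linear interpolation of the resulting dose-response curve. TGI is the concentration that stops growth completely.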

Legend:
Assay in all cases: inhibition of tumour cell growth, NCI panel, 48 h
[1] = tested on: SF-539 CNS
[2] = tested on: SW-620 colon
[3] = tested on: K-562 leukemia
[4] = tested on: OVCAR-4 ovarian
[5] = tested on: LOX IMVI melanoma
[6] = tested on: HS 578T breast
[7] = tested on: OVCAR-5 ovarian
[8] = tested on: NCI-H522 lung
[9] = tested on: SF-295 CNS
[10] = tested on: RXF 393 renal
[11] = tested on: NCI-H23 lung
[12] = tested on: EKVX NSCLC
[13] = tested on: U251 CNS
[14] = tested on: SN12C renal
[15] = tested on: HCC-2998 colon
[16] = tested on: TK-10 renal
[17] = tested on: MCF7 breast
[18] = tested on: M14 melanoma
[19] = tested on: SF-268 CNS
[20] = tested on: MDA-N
[21] = tested on: HCT-15 colon
[22] = tested on: HOP-62 NSCLC
[23] = tested on: DU-145 prostate
[24] = tested on: RPMI-8226 leukemia
[25] = tested on: BT-549 breast
[26] = tested on: UACC-257 melanoma
[27] = tested on: SNB-19 CNS
[28] = tested on: MDA-MB-231 breast
[29] = tested on: HCT-116 colon
[30] = tested on: SR leukemia
[31] = tested on: CCRF-CEM leukemia
[32] = tested on: A498 renal
[33] = tested on: OVCAR-3 ovarian
[34] = tested on: HOP-92 NSCLC
[35] = tested on: HT29 colon
[36] = tested on: NCI/ADR-RES ovarian
[37] = tested on: SK-MEL-28 melanoma
[38] = tested on: MOLT-4 leukemia
[39] = tested on: A549 NSCLC
[40] = tested on: COLO 205 colon
[41] = tested on: IGROV1 ovarian
[42] = tested on: CAKI-1 renal
[43] = tested on: OVCAR-8 ovarian
[44] = tested on: UO-31 renal
[45] = tested on: UACC-62 melanoma
[46] = tested on: 786-0 renal
[47] = tested on: MDA-MB-435
[48] = tested on: ACHN renal
[49] = tested on: NCI-H226 lung
[50] = tested on: T-47D breast
[51] = tested on: HL-60(TB) leukemia
[52] = tested on: SK-OV-3 ovarian
[53] = tested on: NCI-H460 lung
[54] = tested on: SK-MEL-5 melanoma
[55] = tested on: MALME-3M melanoma
[56] = tested on: SNB-75 CNS
[57] = tested on: SK-MEL-2 melanoma
[58] = tested on: KM12 colon
[59] = tested on: PC-3 prostate

COc1ccc(-c2cc(=O)c3c(OC)c(O)c(OC)cc3o2)cc1 gave a TGI [1] of over 100 µM, a TGI [2] of over 100 µM and a TGI [3] of over 100 µM. For the same molecule, the TGI [4] was over 100 µM, the TGI [5] was over 100 µM and the TGI [6] was over 100 µM. It also gave a TGI [7] of over 100 µM, a TGI [8] of over 100 µM and a TGI [9] of over 100 µM. The TGI [10] was over 100 µM, the TGI [11] was over 100 µM and the TGI [12] was over 100 µM. For the same molecule, the TGI [13] was over 100 µM, the TGI [14] was over 100 µM and the TGI [15] was over 100 µM. For the same molecule, the TGI [16] was 94 µM, the TGI [17] was over 100 µM and the TGI [18] was over 100 µM. The TGI [19] was over 100 µM, the TGI [20] was over 100 µM and the TGI [21] was over 100 µM. It also gave a TGI [22] of over 100 µM, a TGI [23] of over 100 µM and a TGI [24] of 99.3 µM. It also gave a TGI [25] of over 100 µM, a TGI [26] of over 100 µM and a TGI [27] of over 100 µM. For the same molecule, the TGI [28] was over 100 µM, the TGI [29] was over 100 µM and the TGI [30] was over 100 µM. It also gave a TGI [31] of over 100 µM, a TGI [32] of 88.5 µM and a TGI [33] of over 100 µM. For the same molecule, the TGI [34] was 89.6 µM, the TGI [35] was over 100 µM and the TGI [36] was over 100 µM. It also gave a TGI [37] of over 100 µM, a TGI [38] of over 100 µM and a TGI [39] of over 100 µM. The TGI [40] was over 100 µM, the TGI [41] was over 100 µM and the TGI [42] was over 100 µM. It also gave a TGI [43] of over 100 µM, a TGI [44] of over 100 µM and a TGI [45] of over 100 µM. It also gave a TGI [46] of over 100 µM, a TGI [47] of over 100 µM and a TGI [48] of over 100 µM. It also gave a TGI [49] of over 100 µM, a TGI [50] of over 100 µM and a TGI [51] of over 100 µM. The TGI [52] was over 100 µM, the TGI [53] was over 100 µM and the TGI [54] was 94.9 µM. It also gave a TGI [55] of over 100 µM, a TGI [56] of over 100 µM and a TGI [57] of over 100 µM.
With CC1OC1P(=O)(O)O (centres undefined) the TGI [2] was over 100 µM, the TGI [3] was over 100 µM and the TGI [4] was over 100 µM. The TGI [58] was over 100 µM, the TGI [5] was over 100 µM and the TGI [6] was over 100 µM. For the same molecule, the TGI [7] was over 100 µM, the TGI [9] was over 100 µM and the TGI [10] was over 100 µM. The TGI [11] was over 100 µM, the TGI [12] was over 100 µM and the TGI [13] was over 100 µM. It also gave a TGI [14] of over 100 µM, a TGI [15] of over 100 µM and a TGI [16] of over 100 µM. For the same molecule, the TGI [17] was over 100 µM, the TGI [19] was over 100 µM and the TGI [20] was over 100 µM. It also gave a TGI [21] of over 100 µM, a TGI [22] of over 100 µM and a TGI [23] of over 100 µM. The TGI [24] was over 100 µM, the TGI [25] was over 100 µM and the TGI [26] was over 100 µM. The TGI [27] was over 100 µM, the TGI [28] was over 100 µM and the TGI [29] was over 100 µM. The TGI [30] was over 100 µM, the TGI [31] was over 100 µM and the TGI [32] was over 100 µM. For the same molecule, the TGI [33] was over 100 µM, the TGI [34] was over 100 µM and the TGI [59] was over 100 µM. The TGI [35] was over 100 µM, the TGI [37] was over 100 µM and the TGI [38] was over 100 µM. It also gave a TGI [39] of over 100 µM, a TGI [40] of over 100 µM and a TGI [41] of over 100 µM. It also gave a TGI [42] of over 100 µM, a TGI [43] of over 100 µM and a TGI [44] of over 100 µM. For the same molecule, the TGI [45] was over 100 µM, the TGI [46] was over 100 µM and the TGI [47] was over 100 µM. It also gave a TGI [48] of over 100 µM, a TGI [50] of over 100 µM and a TGI [52] of over 100 µM. The TGI [53] was over 100 µM, the TGI [54] was over 100 µM and the TGI [56] was over 100 µM. The TGI [57] was over 100 µM.
